The values below come from ChEMBL document CHEMBL1641502, “The identification of substituted benzothiophene derivatives as PGE(2) subtype 4 receptor antagonists: From acid to non-acid” (Bioorg Med Chem Lett, 2011).

The target in test [1] is T1, Prostaglandin E2 receptor EP4 subtype (Homo sapiens, UniProt P35408). Put plainly: Binding affinity to EP4 receptor.
Test [2] has as its target T1, Prostaglandin E2 receptor EP4 subtype. In words: Binding affinity to EP4 receptor in presence of 10% HSA.
The target of test [3] is Prostaglandin E2 receptor EP2 subtype (Homo sapiens, UniProt P43116). Put plainly: Binding affinity to EP2 receptor.
Test [4] concerns the target T1, Prostaglandin E2 receptor EP4 subtype. In words: Antagonist activity at human EP4 receptor in HEK293 cells by cell-based functional assay.
The next test concerns the target Prostacyclin receptor (Homo sapiens, UniProt P43119). Put plainly: Binding affinity to IP receptor.
Test [5] can be described thus: Binding affinity to DP receptor.
Test [6] concerns the target T2, Prostaglandin E2 receptor EP1 subtype (Homo sapiens, UniProt P34995).
T2 sequence (P34995 whole entry): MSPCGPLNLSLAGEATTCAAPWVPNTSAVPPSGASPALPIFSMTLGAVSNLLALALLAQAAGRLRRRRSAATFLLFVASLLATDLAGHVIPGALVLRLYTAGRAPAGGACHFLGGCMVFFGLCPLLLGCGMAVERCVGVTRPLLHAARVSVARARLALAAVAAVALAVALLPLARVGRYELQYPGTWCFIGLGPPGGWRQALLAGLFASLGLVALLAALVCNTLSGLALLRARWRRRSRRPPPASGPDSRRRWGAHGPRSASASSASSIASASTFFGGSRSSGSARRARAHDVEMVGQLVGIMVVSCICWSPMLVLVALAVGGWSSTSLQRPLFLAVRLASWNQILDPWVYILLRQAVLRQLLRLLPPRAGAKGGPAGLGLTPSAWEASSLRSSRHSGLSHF
In words: Binding affinity to EP1 receptor.

In test [7] the target is Prostaglandin F2-alpha receptor (Homo sapiens, UniProt P43088). Put plainly: Binding affinity to FP receptor.
Test [8] concerns the target T3, Prostaglandin D2 receptor 2 (Homo sapiens, UniProt Q9Y5Y4).
T3 sequence (Q9Y5Y4 whole entry): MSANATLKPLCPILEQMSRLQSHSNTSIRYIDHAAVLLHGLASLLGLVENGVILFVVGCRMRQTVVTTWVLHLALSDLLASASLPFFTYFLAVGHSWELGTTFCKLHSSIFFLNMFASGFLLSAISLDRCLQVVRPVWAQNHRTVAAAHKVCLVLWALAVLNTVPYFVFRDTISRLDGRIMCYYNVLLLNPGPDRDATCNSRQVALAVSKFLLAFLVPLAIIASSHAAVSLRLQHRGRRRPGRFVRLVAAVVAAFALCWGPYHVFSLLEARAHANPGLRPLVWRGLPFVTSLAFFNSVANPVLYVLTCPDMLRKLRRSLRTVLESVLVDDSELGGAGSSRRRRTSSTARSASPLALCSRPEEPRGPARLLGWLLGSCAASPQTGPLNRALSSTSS
Put plainly: Binding affinity to CRTH2 receptor.

Test [9] concerns the target T4, Prostaglandin E2 receptor EP3 subtype (Homo sapiens, UniProt P43115).
T4 sequence (P43115 whole entry): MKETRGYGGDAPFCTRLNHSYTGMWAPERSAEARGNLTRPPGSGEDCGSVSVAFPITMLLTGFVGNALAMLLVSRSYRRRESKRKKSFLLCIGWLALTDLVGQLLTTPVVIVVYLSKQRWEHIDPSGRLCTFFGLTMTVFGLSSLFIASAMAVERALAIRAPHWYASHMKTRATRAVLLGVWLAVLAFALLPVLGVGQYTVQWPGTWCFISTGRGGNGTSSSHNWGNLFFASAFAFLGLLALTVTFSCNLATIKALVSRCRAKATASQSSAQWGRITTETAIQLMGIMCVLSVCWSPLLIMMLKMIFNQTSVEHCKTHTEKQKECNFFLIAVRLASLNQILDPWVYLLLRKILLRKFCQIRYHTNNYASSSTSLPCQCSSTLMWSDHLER
In words: Binding affinity to EP3 receptor.

For the next test, the target named is T5, Thromboxane A2 receptor (Homo sapiens, UniProt P21731).
T5 sequence (P21731 whole entry): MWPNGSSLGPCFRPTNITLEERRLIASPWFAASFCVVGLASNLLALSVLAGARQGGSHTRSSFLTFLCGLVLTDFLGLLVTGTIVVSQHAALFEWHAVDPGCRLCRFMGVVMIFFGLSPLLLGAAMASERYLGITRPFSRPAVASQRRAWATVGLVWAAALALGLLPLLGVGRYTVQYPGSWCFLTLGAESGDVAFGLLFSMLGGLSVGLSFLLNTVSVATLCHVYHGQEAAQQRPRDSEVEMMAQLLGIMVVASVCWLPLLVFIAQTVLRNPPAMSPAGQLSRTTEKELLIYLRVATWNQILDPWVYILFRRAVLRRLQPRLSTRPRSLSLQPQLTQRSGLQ
In words: Binding affinity to TP receptor.

Some results are limits rather than exact numbers.

T1 sequence (P35408 whole entry): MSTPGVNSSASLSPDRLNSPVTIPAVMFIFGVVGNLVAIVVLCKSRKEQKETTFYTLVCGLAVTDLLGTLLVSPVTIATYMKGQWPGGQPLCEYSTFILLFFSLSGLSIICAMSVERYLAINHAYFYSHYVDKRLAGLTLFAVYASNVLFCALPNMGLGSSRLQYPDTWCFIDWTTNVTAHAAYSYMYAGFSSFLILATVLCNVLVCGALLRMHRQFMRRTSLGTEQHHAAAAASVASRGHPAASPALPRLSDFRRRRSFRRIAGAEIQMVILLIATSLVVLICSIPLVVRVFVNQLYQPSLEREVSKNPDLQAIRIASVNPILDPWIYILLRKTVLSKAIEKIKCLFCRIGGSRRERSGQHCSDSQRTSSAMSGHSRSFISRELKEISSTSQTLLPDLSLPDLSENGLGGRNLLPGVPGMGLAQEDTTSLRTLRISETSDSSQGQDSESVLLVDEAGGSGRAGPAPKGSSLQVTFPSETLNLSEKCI
Sequence of Prostaglandin F2-alpha receptor (P43088 whole entry): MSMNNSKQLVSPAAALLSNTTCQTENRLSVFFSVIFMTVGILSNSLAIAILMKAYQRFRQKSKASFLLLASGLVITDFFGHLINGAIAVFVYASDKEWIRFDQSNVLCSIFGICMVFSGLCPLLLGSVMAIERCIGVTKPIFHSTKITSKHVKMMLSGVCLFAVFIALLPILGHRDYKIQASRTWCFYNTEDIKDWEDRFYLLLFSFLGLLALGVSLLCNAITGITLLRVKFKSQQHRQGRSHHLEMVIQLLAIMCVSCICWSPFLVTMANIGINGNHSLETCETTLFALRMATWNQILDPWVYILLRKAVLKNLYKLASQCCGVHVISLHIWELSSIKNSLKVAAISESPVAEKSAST
Sequence of Prostaglandin E2 receptor EP2 subtype (P43116 whole entry): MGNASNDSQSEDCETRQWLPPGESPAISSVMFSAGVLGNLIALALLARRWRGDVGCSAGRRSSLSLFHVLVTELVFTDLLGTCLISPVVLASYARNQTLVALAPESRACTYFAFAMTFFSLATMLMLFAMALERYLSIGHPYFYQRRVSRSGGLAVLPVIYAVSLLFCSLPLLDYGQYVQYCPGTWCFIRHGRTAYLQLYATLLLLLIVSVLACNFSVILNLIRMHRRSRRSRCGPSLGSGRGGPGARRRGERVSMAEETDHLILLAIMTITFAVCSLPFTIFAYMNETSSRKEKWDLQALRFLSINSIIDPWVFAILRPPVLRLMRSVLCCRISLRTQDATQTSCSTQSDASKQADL
Sequence of Prostacyclin receptor (P43119 whole entry): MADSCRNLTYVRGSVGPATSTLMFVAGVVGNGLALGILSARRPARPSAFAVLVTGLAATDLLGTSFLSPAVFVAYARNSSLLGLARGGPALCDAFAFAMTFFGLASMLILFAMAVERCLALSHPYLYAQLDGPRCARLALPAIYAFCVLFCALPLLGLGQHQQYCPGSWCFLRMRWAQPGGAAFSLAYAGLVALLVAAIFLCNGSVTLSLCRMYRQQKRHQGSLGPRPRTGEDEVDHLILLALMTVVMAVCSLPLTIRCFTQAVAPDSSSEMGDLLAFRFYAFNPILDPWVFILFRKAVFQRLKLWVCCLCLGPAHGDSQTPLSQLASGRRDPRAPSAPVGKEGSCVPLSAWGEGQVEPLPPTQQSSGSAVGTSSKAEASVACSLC

Take `Cc1cc(C)c2sc(C(=O)N(C)C)c(-c3ccc(-c4nn[nH]n4)cc3)c2c1`: the results for the Ki in test [1] and in test [2] were 160 nM and 2300 nM, respectively.
For `COC(=O)c1sc2c(C)cc(C)cc2c1-c1ccc(CCNC(=O)NS(=O)(=O)c2ccc(C)cc2)cc1`, in that order: 0.97 nM and 39 nM.
For `Cc1ccc(S(=O)(=O)NC(=O)NCCc2ccc(-c3c(C(=O)N(C)C)sc4c(C)cc(C)cc34)cc2)cc1`, the Ki (commonly a dissociation constant, usually derived from enzyme kinetics or from competition with a known ligand) in test [3] was 3330 nM; at Prostacyclin receptor it was greater than 7700 nM; in test [5] it was 73 nM; in test [6], greater than 9500 nM; in [7], greater than 8700 nM; in test [8], greater than 7230 nM. The Ki was 530 nM in [9], 0.54 nM in test [1], 1.4 nM in test [2] and 61 nM at Thromboxane A2 receptor. Moreover, the half-inhibitory concentration (IC50) (as a rule, the concentration that inhibits the measured activity by half) in test [4] was determined as 1.2 nM.
On to `Cc1cc(C)c2sc(C(=O)N(C)C)c(-c3ccc(CCNC(=O)NS(=O)(=O)c4ccc(Cl)cc4)cc3)c2c1`, for which the Ki came to 0.4 nM in test [1] and 2.2 nM in test [2].
In the case of `Cc1cc(C)c2sc(C(=O)N(C)C)c(-c3ccc(CCNC(=O)NS(=O)(=O)c4ccccc4Cl)cc3)c2c1`, the inhibition constant Ki in test [1] came out at 0.42 nM; in [2], 2.7 nM.
For `Cc1ccc(S(=O)(=O)NC(=O)NCCc2ccc(-c3c(C(N)=O)sc4c(C)cc(C)cc34)cc2)cc1`, the Ki is 3.8 nM in test [1] and 650 nM in [2].
Turning to `CNC(=O)c1sc2c(C)cc(C)cc2c1-c1ccc(CCNC(=O)NS(=O)(=O)c2ccc(C)cc2)cc1`, the Ki in [1] was 0.5 nM; in test [2], 134 nM.
Consider `Cc1ccc(S(=O)(=O)NC(=O)NCCc2ccc(-c3c(C(=O)N4CCCC4)sc4c(C)cc(C)cc34)cc2)cc1`, for which the Ki in test [1] is 0.41 nM; in test [2], 11 nM.
Taken in the same sequence, the figures for `Cc1ccc(S(=O)(=O)NC(=O)NCCc2ccc(-c3c(C(=O)N(C)C)sc4c(Cl)cc(Cl)cc34)cc2)cc1` were 0.59 nM and 17 nM.
For `Cc1ccc(S(=O)(=O)NC(=O)NCCc2ccc(-c3c(C(=O)N(C)C)sc4c(F)cc(F)cc34)cc2)cc1`, the values for the Ki in test [1] and in test [2] were 0.53 nM and 40 nM, respectively.
Regarding `Cc1ccc(S(=O)(=O)NC(=O)NCCc2ccc(-c3c(C(=O)N(C)C)sc4c(Cl)cc(C(F)(F)F)cc34)cc2)cc1`, the Ki in [1] was determined as 0.55 nM; in test [2] it was 8.7 nM.
For `Cc1ccc(S(=O)(=O)NC(=O)NCCc2ccc(-c3c(C(=O)N(C)C)sc4c(C)ccc(C)c34)cc2)cc1`, in that order: 0.77 nM and 19 nM.
Regarding `Cc1cc(C)c2sc(C(=O)N(C)C)c(-c3ccc(CCNC(=O)OC(C)(C)C)cc3)c2c1`, the Ki in test [1] worked out at 68 nM; in test [2] it was 1990 nM.
In test [4], `COc1ccccc1CC(=O)NCCc1ccc(-c2c(C(=O)N(C)C)sc3c(C)cc(C)cc23)cc1` had an IC50 of 2.4 nM. The results for the Ki in [1] and in test [2] were 0.2 nM and 3.4 nM, respectively.
For `Cc1cc(C)c2sc(C(=O)N(C)C)c(-c3ccc(CCNC(=O)Cc4ccccn4)cc3)c2c1`, the Ki in test [1] turned out to be 2.3 nM; in test [2], 40 nM.
Taken in the same sequence, the figures for `COc1ccccc1C1(C(=O)NCCc2ccc(-c3c(C(=O)N(C)C)sc4c(C)cc(C)cc34)cc2)CC1` were 3 nM and 17 nM.
Regarding `Cc1cc(C)c2sc(C(=O)N(C)C)c(-c3ccc(CCNC(=O)Cc4c(Cl)cccc4Cl)cc3)c2c1`, the Ki in test [1] is 1.6 nM; in test [2] it was 17 nM.
Taken in the same sequence, the figures for `Cc1cc(C)c2sc(C(=O)N(C)C)c(-c3ccc(CCNc4ncccn4)cc3)c2c1` were 0.98 nM and 42 nM.
